# Data taken from patent publication US11471462B2, “Compositions and methods for detecting and treating diabetes” (THE BROAD INSTITUTE, INC., priority 2016, dated 2022).
# Tested on: SLC16A11
# Test: Compound treatment, SLC16A11 expression by ddPCR in SNU761 cells
# Type: cell-based, human
# Conditions: SNU761 cells; same doses and treatment times as in the LINCS dataset
# Method: A small number of the compounds that made the strongest positive connections to the SLC16A11 gene expression signature were selected and tested. […] Methotrexate was also included, which had been annotated as a dihydrofolate reductase inhibitor. SNU761 cells (derived from a human hepatocellular carcinoma) and NCIH716 cells (derived from a human cecum adenocarcinoma), which both express SLC16A11, were treated with the compounds. The same compound concentrations and treatment times were used as in the LINCS dataset experiments. […] For normalization, a different housekeeper gene, HPRT1, was used and obtained similar results with the mTOR inhibitors (FIGS. 14A and 14B).
# From the total list of compounds, 59 readily available compounds were selected from the 79 compounds with the largest connectivity scores to the query signature and 20 middle compounds with connectivity scores centered on 0 (FIG. 15A) and then treated SNU761 cells at the same doses and treatment times as were used in the LINCS dataset. It was expected that the top compounds would be enriched for compounds that increased SLC16A11 expression. […] The results were aligned with the expectations (FIG. 15B). Hierarchical clustering of the SLC16 expression profiles generated by the compound treatments are shown by the heat map in FIG. 15C.
# SNU761 (human hepatocellular carcinoma) and NCIH716 (human cecum adenocarcinoma) were cultured in RPMI Medium 1640 supplemented with 10% Fetal Bovine Serum (FBS), 100 μg/ml Streptomycin and 100 U/ml Penicillin. Cells were grown in a humidified CO2 incubator, at 37° C.
# For the unbiased approach taken to investigate the compounds that connected to the SLC16A11 gene expression signature, compounds were obtained from compound management at the Broad Institute.
# SNU761 and NCIH716 cells were plated into 96 well plates at a density of 20,000 cells per well. Hepatocytes were plated into collagen coated 96 well plates (Corning, 354408) at a density of 50,000 cells per well. After 24 hours, cells were treated with compounds at a final concentration of 10 μM or vehicle control for the appropriate amount of time.
# At the time of collection, cells in 96 well plates were lysed by directly adding 50 μL of RLT buffer (Qiagen). 75 μL of AMPure XP beads, diluted by a factor of 5 in polyethylene glycol, were then added to bind nucleic acids. One wash with polyethylene glycol was then performed. DNase treatment (Qiagen) was carried out according to the manufacturer's protocol in a final volume of 50 μL. 100 μL of polyethylene glycol was added after the DNase treatment to crowd nucleic acids back onto the beads. Two washes with 80% ethanol were performed and residual ethanol was removed. RNA was then eluted in water.
# RNA was DNase treated and converted into cDNA using the High-Capacity RNA-to-cDNA kit (Thermo Fisher Scientific). The following FAM-labeled TaqMan Real-Time PCR assays (Thermo Fisher Scientific) were used to quantify gene expression: SLC16A11 (Hs00601062_g1), SLC16A13 (Hs00416832_m1), SLC16A1 (Hs01560299_m1). The VIC-labeled TaqMan Real-Time assays TBP (Hs00427620_m1) or HPRT1 (Hs02800695_m1) were used for normalization. Droplets were generated and analyzed using a QX200 Droplet Generator and Reader system (BioRad). Data was extracted using QuantaSoft (BioRad) and analyzed using Microsoft Excel.
row,Structure (SMILES),"avg_fc (SLC16A11 expression, compound treated vs DMSO treated cells)"
1,"CO[C@H]1C[C@@H]2CC[C@@H](C)[C@@](O)(O2)C(=O)C(=O)N2CCCC[C@H]2C(=O)O[C@H]([C@H](C)C[C@@H]2CC[C@@H](OP(C)(C)=O)[C@H](OC)C2)CC(=O)[C@H](C)/C=C(\C)[C@@H](O)[C@@H](OC)C(=O)[C@H](C)C[C@H](C)/C=C/C=C/C=C/1C [deforolimus, reference compound]",1.903
2,C[C@H]1O[C@@H](O[C@H]2[C@@H](O)C[C@H](O[C@H]3[C@@H](O)C[C@H](O[C@H]4CC[C@@]5(C)[C@H](CC[C@@H]6[C@@H]5CC[C@]5(C)[C@@H](C7=CC(=O)OC7)CC[C@]65O)C4)O[C@@H]3C)O[C@@H]2C)C[C@H](O)[C@@H]1O [digitoxin],1.375
3,Clc1ccc(COC(Cn2ccnc2)c2ccc(Cl)cc2Cl)cc1 (stereo not drawn) [econazole],1.178
4,O=C1OC2(c3ccccc31)c1cc(I)c(O)c(I)c1Oc1c2cc(I)c(O)c1I [erythrosine],0.649
5,COc1cc(Nc2ncc(F)c(Nc3ccc4c(n3)N(COP(=O)(O)O)C(=O)C(C)(C)O4)n2)cc(OC)c1OC [fostamatinib],3.274
6,COc1ccc2ccc(=O)oc2c1 [herniarin],0.9563
7,O=C1N(c2ccccc2)c2ccccc2C1(Cc1ccncc1)Cc1ccncc1 [linopirdine],0.8629
8,Cc1cnc(NC(=O)C2=C(O)c3ccccc3S(=O)(=O)N2C)s1 [meloxicam],0.9414
9,O=C1CC[C@@]2(O)[C@H]3Cc4ccc(O)c5c4[C@@]2(CCN3CC2CC2)[C@H]1O5 [naltrexone],1.183
10,COc1ccc(-c2cc(=O)c3c(OC)c(OC)c(OC)c(OC)c3o2)cc1OC [nobiletin],1.129
11,CC[C@@H]1C(=O)OC[C@@H]1Cc1cncn1C [pilocarpine],0.7379
12,OCCOCCN1CCN(C2=Nc3ccccc3Sc3ccccc32)CC1 [quetiapine],1.019
13,COc1ccccc1OCC(O)CN1CCN(CC(=O)Nc2c(C)cccc2C)CC1 (stereo not drawn) [ranolazine],0.7654
14,"CO[C@H]1C[C@@H]2CC[C@@H](C)[C@@](O)(O2)C(=O)C(=O)N2CCCC[C@H]2C(=O)O[C@H]([C@H](C)C[C@@H]2CC[C@@H](O)[C@H](OC)C2)CC(=O)[C@H](C)/C=C(\C)[C@@H](O)[C@@H](OC)C(=O)[C@H](C)C[C@H](C)/C=C/C=C/C=C/1C [rapamycin, reference compound]",1.662
15,c1nc2nc(Nc3ccc(N4CCOCC4)cc3)nc(NC3CCCCC3)c2[nH]1 [reversine],3.235
16,Cn1cnc2c(F)c(Nc3ccc(Br)cc3Cl)c(C(=O)NOCCO)cc21 [selumetinib],1.964
17,c1ccc2c(CCNc3ccc(Nc4ccncc4)cc3)c[nH]c2c1 [serdemetan],0.6384
18,CO[C@H]1C[C@@H]2CC[C@@H](C)[C@@](O)(O2)C(=O)C(=O)N2CCCC[C@H]2C(=O)O[C@H]([C@H](C)C[C@@H]2CC[C@@H](OC(=O)C(C)(CO)CO)[C@H](OC)C2)CC(=O)[C@H](C)/C=C(\C)[C@@H](O)[C@@H](OC)C(=O)[C@H](C)C[C@H](C)/C=C/C=C/C=C/1C [temsirolimus],1.372
19,COc1cc2nccc(Oc3ccc(NC(=O)Nc4cc(C)on4)c(Cl)c3)c2cc1OC [tivozanib],1.647
20,CCC(=O)N1CCN(c2ccc(-n3c(=O)ccc4cnc5ccc(-c6cnc7ccccc7c6)cc5c43)cc2C(F)(F)F)CC1 [torin-1],2.84
21,Nc1ccc(-c2ccc3ncc4ccc(=O)n(-c5cccc(C(F)(F)F)c5)c4c3c2)cn1 [torin-2],2.843
